# From article PMC8749467, “A new ALK inhibitor overcomes resistance to first‐ and second‐generation inhibitors in NSCLC” (EMBO Molecular Medicine, 2021)
# Like-named read-outs stand apart in the source and are kept apart here.
# Columns and labels:
# [1] = tested on: kinase panels; conditions: cited from earlier work
# [2] = tested on: EML4-ALK Ba/F3 cells; assay: Cell survival assay (MTS); conditions: EML4-ALK Ba/F3, 48 h
# Method: (§1) The murine Pro‐B cell line Ba/F3 cells were provided by Jianming Zhang from Shanghai Jiaotong University. All cells were authenticated by short tandem repeat testing and tested negative for mycoplasma contamination using Luminescent Mycoplasma Detection Kit (Beyotime, Shanghai, China). […] All of these cell lines were maintained at 37°C and 5% CO2.
# (§2) Cell viability was determined by MTS assay (Promega).
# [3] = tested on: parental (wild-type) Ba/F3 cells; assay: Cell survival assay (MTS); assay type: cell-based, murine; conditions: Mus musculus, BaF3, 48 h
# Method: as §1, §2
# [4] = Pharmacokinetics in ICR mice; assay type: in vivo; conditions: for concentration at […] / concentration at 0.25 h / concentration at 0.5 h / concentration at 1 h / concentration at 2 h / concentration at 4 h / concentration at 8 h / concentration at 24 h: ICR, blood, read-out: Blood drug concentration; for concentration at […]: 0.083 h; for MRT inf: read-out: MRT(0-∞); for Vd: read-out: Vz;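 as to all read-outs here: drug levels in collected samples measured by LC-MS/MS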
# Method: Then the samples were quantified by LC-MS/MS, and data analysis was conducted using WinNonlin V6.3. IV = intravenous injection, PO = oral delivery, Tmax = time of maximum plasma concentration, Cmax = maximum plasma concentration, AUC = area under the curve (measure of exposure), T1/2 = half life, CL = plasma clearance, Vz = volume of distribution, F = oral bioavailability.
# [5] = reported data ref Huber et al, 2014
# [6] = mouse, plasma, IV, 5 mg/kg, ICR mice
# [7] = mouse, plasma, IV, 30 mg/kg, ICR mice
# [8] = mouse, plasma, IV, 60 mg/kg, ICR mice
# [9] = mouse, plasma, PO, 10 mg/kg, ICR mice
smiles,measurement,setting,value
"CCc1cc2c(cc1N1CCC(N3CCOCC3)CC1)C(C)(C)c1[nH]c3cc(C#N)ccc3c1C2=O [Alectinib, alectinib]",S(10),"[1]; reported data ref Sakamoto et al, 2011",0.07
"COc1cc(N2CCC(N3CCN(C)CC3)CC2)ccc1Nc1ncc(Cl)c(Nc2ccccc2P(C)(C)=O)n1 [Brigatinib, brigatinib]",IC50,"[2]; Mus musculus, BaF3, 48 h",17.3 nM
same,S(10),"[1]; reported data ref Zhang et al, 2016",0.34
"Cc1cc(Nc2ncc(Cl)c(Nc3ccccc3S(=O)(=O)C(C)C)n2)c(OC(C)C)cc1C1CCNCC1 [Ceritinib, ceritinib]",IC50,"[2]; Mus musculus, BaF3, 48 h",1.2 nM
same,S(10),"[1]; reported data ref Jang et al, 2017",0.19
"C[C@@H](Oc1cc(-c2cnn(C3CCNCC3)c2)cnc1N)c1c(Cl)ccc(F)c1Cl [Crizotinib, crizotinib]",S(35),[1]; [5],0.21
same,number of kinases with ctrl ≤35%,[1]; [5],94
same,IC50,[3],1120 nM
"C[C@H]1Oc2cc(cnc2N)-c2c(nn(C)c2C#N)CN(C)C(=O)c2ccc(F)cc21 [Lorlatinib, lorlatinib]",IC50,[2],1.5 nM
COc1cc2c(cc1Nc1nc(Nc3ccccc3S(=O)(=O)C(C)C)c3[nH]ccc3n1)N(C(=O)CN(C)C)CC2 [XMU-MP-5],concentration at […],"[4]; mouse, IV, 5 mg/kg, mice",4.3 µg/mL
same,concentration at 0.25 h,"[4]; mouse, IV, 5 mg/kg, mice",2.43 µg/mL
same,concentration at 0.5 h,"[4]; mouse, IV, 5 mg/kg, mice",1.53 µg/mL
same,concentration at 1 h,"[4]; mouse, IV, 5 mg/kg, mice",0.613 µg/mL
same,concentration at 2 h,"[4]; mouse, IV, 5 mg/kg, mice",0.308 µg/mL
same,concentration at 4 h,"[4]; mouse, IV, 5 mg/kg, mice",0.0728 µg/mL
same,concentration at 8 h,"[4]; mouse, IV, 5 mg/kg, mice",0.0287 µg/mL
same,concentration at 24 h,"[4]; mouse, IV, 5 mg/kg, mice",0.00209 µg/mL
same,concentration at […],"[4]; mouse, IV, 30 mg/kg, mice",8.26 µg/mL
same,concentration at 0.25 h,"[4]; mouse, IV, 30 mg/kg, mice",5.43 µg/mL
same,concentration at 0.5 h,"[4]; mouse, IV, 30 mg/kg, mice",3.87 µg/mL
same,concentration at 1 h,"[4]; mouse, IV, 30 mg/kg, mice",2.99 µg/mL
same,concentration at 2 h,"[4]; mouse, IV, 30 mg/kg, mice",2.06 µg/mL
same,concentration at 4 h,"[4]; mouse, IV, 30 mg/kg, mice",0.688 µg/mL
same,concentration at 8 h,"[4]; mouse, IV, 30 mg/kg, mice",0.171 µg/mL
same,concentration at 24 h,"[4]; mouse, IV, 30 mg/kg, mice",0.0179 µg/mL
same,concentration at […],"[4]; mouse, IV, 60 mg/kg, mice",12.4 µg/mL
same,concentration at 0.25 h,"[4]; mouse, IV, 60 mg/kg, mice",7.19 µg/mL
same,concentration at 0.5 h,"[4]; mouse, IV, 60 mg/kg, mice",6.43 µg/mL
same,concentration at 1 h,"[4]; mouse, IV, 60 mg/kg, mice",5.43 µg/mL
same,concentration at 2 h,"[4]; mouse, IV, 60 mg/kg, mice",2.91 µg/mL
same,concentration at 4 h,"[4]; mouse, IV, 60 mg/kg, mice",2.58 µg/mL
same,concentration at 8 h,"[4]; mouse, IV, 60 mg/kg, mice",0.555 µg/mL
same,concentration at 24 h,"[4]; mouse, IV, 60 mg/kg, mice",0.0296 µg/mL
same,dose dependence of blood drug concentrations,"[4]; IV, 5, 30 and 60 mg/kg, mice",linear increase
same,AUC(0-inf),[4]; [6],3.31 µg·h/mL
same,AUC(0-t),[4]; [6],3.3 µg·h/mL
same,C0,[4]; [6],5.72 µg/mL
same,Cmax,[4]; [6],4.3 µg/mL
same,Tmax,[4]; [6],0.08 h
same,clearance,[4]; [6],1.51 L/h/kg
same,half-life,[4]; [6],3.99 h
same,MRT inf,[4]; [6],1.74 h
same,Vd,[4]; [6],8.7 L/kg
same,AUC(0-inf),[4]; [7],13.2 µg·h/mL
same,AUC(0-t),[4]; [7],13.1 µg·h/mL
same,C0,[4]; [7],10.2 µg/mL
same,clearance,[4]; [7],2.27 L/h/kg
same,half-life,[4]; [7],4.93 h
same,MRT inf,[4]; [7],2.95 h
same,Vd,[4]; [7],6.7 L/kg
same,AUC(0-inf),[4]; [8],26.4 µg·h/mL
same,AUC(0-t),[4]; [8],26.2 µg·h/mL
same,C0,[4]; [8],16.3 µg/mL
same,clearance,[4]; [8],2.27 L/h/kg
same,half-life,[4]; [8],4.01 h
same,MRT inf,[4]; [8],3.39 h
same,Vd,[4]; [8],7.71 L/kg
same,AUC(0-inf),[4]; [9],1.27 µg·h/mL
same,AUC(0-t),[4]; [9],1.21 µg·h/mL
same,Cmax,[4]; [9],0.475 µg/mL
same,Tmax,[4]; [9],0.5 h
same,half-life,[4]; [9],1.53 h
same,bioavailability,"[4]; mouse, plasma, PO, 10 mg/kg, ICR mice, read-out: F (oral bioavailability)",18.3%
same,MRT inf,[4]; [9],3.08 h
